The results in this text go back to patent US20070179154A1, “Coumarin derivatives, process for their production and use thereof” (Takeda Pharmaceutical Company Limited, priority 2002, published 2007).

SMILES strings stand for the structures.

For data set [1], the target named is T1, mouse abdominal macrophage microsome ACAT (Mus musculus, UniProt Q61263).
T1 construct: from tissue; host or cells: microsomes of thioglycolate-elicited peritoneal (abdominal) macrophages of C57BL6J mice, cultured 24 h with rabbit beta-VLDL
T1 sequence (Q61263 1-540): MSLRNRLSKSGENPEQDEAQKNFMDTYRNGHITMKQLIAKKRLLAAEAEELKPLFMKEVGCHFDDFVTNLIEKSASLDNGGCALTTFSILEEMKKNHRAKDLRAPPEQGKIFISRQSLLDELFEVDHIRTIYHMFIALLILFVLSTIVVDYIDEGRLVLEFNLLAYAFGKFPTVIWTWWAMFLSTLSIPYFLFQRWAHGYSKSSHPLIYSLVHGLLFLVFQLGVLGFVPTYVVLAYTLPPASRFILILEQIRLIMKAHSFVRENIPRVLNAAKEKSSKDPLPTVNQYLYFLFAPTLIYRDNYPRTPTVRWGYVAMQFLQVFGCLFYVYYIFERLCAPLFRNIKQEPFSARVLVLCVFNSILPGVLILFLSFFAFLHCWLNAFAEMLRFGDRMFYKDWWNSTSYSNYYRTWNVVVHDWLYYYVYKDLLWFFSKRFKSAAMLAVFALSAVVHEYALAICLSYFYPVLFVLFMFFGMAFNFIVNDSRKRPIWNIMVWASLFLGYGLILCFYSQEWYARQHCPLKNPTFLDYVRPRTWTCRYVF
As to the kind of experiment: ACAT inhibitory activity (mouse abdominal macrophage microsome ACAT). As to conditions: microsome ACAT from thioglycolate-stimulated C57BL6J mouse abdominal macrophage; 3H-oleyl-CoA, 37° C. for 20 minutes; read-out: Enzyme inhibition (IC50). The format is biochemical. How it is done:
[Preparation of Mouse Abdominal Macrophage Microsome ACAT]
According to the method of Hakamada et al. (Experimental Medicine Suppliment vol. 14, No. 12, Circulation Research Protocol, p, 49-52, 1996), an abdominal macrophage was taken from a thioglycolate-stimulated C57BL6J mouse and cultured for 24 hours in a RPMI 1640-25 mM HEPES (pH7.0) medium containing rabbit β-very low density lipoprotein (β-VLDL, 150 μg cholesterol/ml) which had been prepared by the method of Ishii et al. (Ishii I et al., Arterioscler, Thromb, 12, 1139-1145, 1992). The abdominal macrophage was then collected by centrifugation (4° C., 1.000 rpm, 5 minutes) and sonicated. The sonicated liquid was centrifuged (4° C., 5000 rpm, 15 minutes) and then ultracentrifuged (4° C., 50, 000 rpm, 90 minutes) to prepare a microsome. The microsome thus obtained was used for measuring ACAT inhibitory activity of a test compound as mouse abdominal macrophage microsome ACAT.
[Method for Measuring ACAT Inhibitory Activity]
A mixture of a test compound, cholesterol-albumin-containing-Tris-HCL buffer (pH 7.5) and mouse abdominal macrophage microsome ACAT was pre-incubated at 37° C. for 10 minutes, and ^3H-oleyl-CoA was added to react at 37° C. for 20 minutes. A stopping solution composed of chloroform-methyl alcohol-distilled water (2:2:1 v/v) was added, and produced cholesteryl ester (CE) was extracted with shaking. The extract was subjected to silica gel thin chromatography (petroleum ether:diethyl ether:acetic acid=9:1:0.1 v/v), and the resulting ^3H-CE fraction was measured with a scintillation counter.
ACAT inhibiting rate was calculated from the proportion based on ACAT activity without a test compound, and an IC50 value was calculated as the concentration (μM) of a test compound showing ACAT inhibiting rate 50%. The results are shown in [Table 15].

By IC50 is commonly meant the point on the concentration scale where inhibition reaches its midpoint. Usually melting point stands for the temperature, or range, at which the solid turns liquid.

Regarding `O=C(O)/C=C/c1cccc(-c2c(CC(=O)Nc3ccc(F)cc3C(F)(F)F)c(=O)oc3cc(Cl)c(CN4CCN(c5ccccc5)CC4)cc23)c1` [Example 110, (2E)-3-(3-{7-chloro-3-(2-{[4-fluoro-2-(trifluoromethyl)phenyl]amino}-2-oxoethyl)-2-oxo-6-[(4-phenylpiperazin-1-yl)methyl]-2H-chromen-4-yl}phenyl)acrylic acid], the melting point is 238 to 240 °C. In addition, the IC50 in data set [1] is 540 nM.

In turn, `O=C(O)CCc1cccc(-c2c(CC(=O)Nc3ccc(Cl)cc3C(F)(F)F)c(=O)oc3cc(Cl)c(CN4CCN(c5ccccc5)CC4)cc23)c1` [Example 115] yielded a melting point of 207 to 209 °C. For the same compound, the IC50 in data set [1] was determined as 420 nM.

Compound `O=C(Cc1c(-c2cccc(C(=O)O)c2)c2cc(CN3CCN(c4ccccc4)CC3)c(Cl)cc2oc1=O)Nc1ccc(Cl)cc1C(F)(F)F` [Example 113, 3-{7-chloro-3-(2-{[4-chloro-2-(trifluoromethyl)phenyl]amino}-2-oxoethyl)-2-oxo-6-[(4-phenylpiperazin-1-yl)methyl]-2H-chromen-4-yl}benzoic acid] came in with a melting point of 151 to 153 °C. The IC50 in data set [1] is 1220 nM.

On to `O=C(Cc1c(-c2cccc(C(=O)O)c2)c2cc(CN3CCN(c4ccccc4)CC3)c(Cl)cc2oc1=O)Nc1ccc(F)cc1C(F)(F)F` [Example 112, 3-{7-chloro-3-(2-{[4-fluoro-2-(trifluoromethyl)phenyl]amino}-2-oxoethyl)-2-oxo-6-[(4-phenylpiperazin-1-yl)methyl]-2H-chromen-4-yl}benzoic acid], for which the melting point is 149 to 151 °C. Also, the IC50 in data set [1] is 540 nM.

`O=C(O)/C=C/c1cccc(-c2c(CC(=O)Nc3ccc(Cl)cc3C(F)(F)F)c(=O)oc3cc(Cl)c(CN4CCN(c5ccccc5)CC4)cc23)c1` [Example 111, (2E)-3-(3-{7-chloro-3-(2-{[4-chloro-2-(trifluoromethyl)phenyl]amino}-2-oxoethyl)-2-oxo-6-[(4-phenylpiperazin-1-yl)methyl]-2H-chromen-4-yl}phenyl)acrylic acid]: the melting point lay within 239 to 241 °C. In addition, in data set [1], the IC50 is 610 nM.

As for `CCOC(=O)CS(=O)(=O)Cc1cccc(-c2c(CC(=O)Nc3ccc(F)cc3C(F)(F)F)c(=O)oc3cc(Cl)c(C)cc23)c1` [Example 64, Ethyl ({3-[7-chloro-3-(2-{[4-fluoro-2-(trifluoromethyl)phenyl]amino}-2-oxoethyl)-6-methyl-2-oxo-2H-chromen-4-yl]benzyl}sulfonyl)acetate], the melting point was 230 to 231 °C.

On to `Cc1cc2c(-c3cccc(CCCC(=O)O)c3)c(CC(=O)Nc3ccc(F)cc3C(F)(F)F)c(=O)oc2cc1Cl` [Example 78], for which the IC50 in data set [1] turned out to be 430 nM.

Compound `CCOC(=O)CNCc1cccc(-c2c(CC(=O)Nc3ccc(F)cc3C(F)(F)F)c(=O)oc3cc(Cl)c(C)cc23)c1` [Example 62, Ethyl ({3-[7-chloro-3-(2-{[4-fluoro-2-(trifluoromethyl)phenyl]amino}-2-oxoethyl)-6-methyl-2-oxo-2H-chromen-4-yl]benzyl}amino)acetate] showed a melting point of 153 to 155 °C.

In turn, `O=C(O)CCc1cccc(-c2c(CC(=O)Nc3ccc(F)cc3C(F)(F)F)c(=O)oc3ccccc23)c1` [Example 24, 3-[3-[3-[2-[[4-fluoro-2-(trifluoromethyl)phenyl]amino]-2-oxoethyl]-2-oxo-2H-chromen-4-yl]phenyl]propionic acid] displayed a melting point of 230 to 232 °C.

For the compound `O=C(O)CCc1cccc(-c2c(CC(=O)Nc3ccc(F)cc3C(F)(F)F)c(=O)oc3cc(Cl)c(CN4CCN(c5ccccc5)CC4)cc23)c1` [Example 114], the melting point lay in the range of 226 to 228 °C. The 50% inhibitory concentration (IC50) in data set [1] came to 550 nM.

`O=C(O)/C=C/c1cccc(-c2c(CC(=O)Nc3ccc(F)cc3C(F)(F)F)c(=O)oc3cc(Cl)ccc23)c1` [Example 18, (2E)-3-[3-[7-chloro-3-[2-[[4-fluoro-2-(trifluoromethyl)phenyl]amino]-2-oxoethyl]-2-oxo-2H-chromen-4-yl]phenyl]-2-propenoic acid] had a melting point of 254 to 257 °C.

`O=C(O)CCc1cccc(-c2c(CC(=O)Nc3ccc(F)cc3C(F)(F)F)c(=O)oc3cc(Cl)c(F)cc23)c1` [Example 22, 3-[3-[7-chloro-6-fluoro-3-[2-[[4-fluoro-2-(trifluoromethyl)phenyl]amino]-2-oxoethyl]-2-oxo-2H-chromen-4-yl]phenyl]propionic acid] yielded a melting point of 198 to 200 °C.

The compound `CCOC(=O)/C=C/c1cccc(-c2c(CC(=O)Nc3ccc(F)cc3C(F)(F)F)c(=O)oc3cc(Cl)c(F)cc23)c1` [Example 6, ethyl (2E)-3-[3-[7-chloro-6-fluoro-3-[2-[[4-fluoro-2-(trifluoromethyl)phenyl]amino]-2-oxoethyl]-2-oxo-2H-chromen-4-yl]phenyl}-2-propenoate] came in with a melting point of 151 to 153 °C.
